In ChEMBL document CHEMBL3286207, “Development of a new class of proteasome inhibitors with an epoxyketone warhead: Rational hybridization of non-peptidic belactosin derivatives and peptide epoxyketones” (Bioorg Med Chem, 2014):

How the values were obtained:
HCT-116 = assay: Cytotoxicity against human HCT116 cells assessed as growth inhibition after 72 hrs by CCK-8 assay; format: functional, cell-based; settings: HCT-116, 72 h
26S proteasome = assay: Inhibition of chymotrypsin-like of human 20S proteasome using chromophoric Suc-LLVY-AMC as substrate after 60 mins by fluorescence assay; format: protein-complex assay

| SMILES | IC50 (HCT-116) | IC50 (26S proteasome) |
| --- | --- | --- |
| CC[C@H](C)[C@@H]1C(=O)O[C@H]1C(=O)NCCC(COCc1ccccc1)COCc1ccccc1 | > 10000 nM |  |
| CC(=O)N[C@@H](CC(=O)NCCC(COCc1ccccc1)COCc1ccccc1)C(=O)N[C@@H](CC(C)C)C(=O)[C@@]1(C)CO1 | 1900 nM | 2300 nM |
| CC(=O)N[C@@H](CC(=O)NCCCCOCc1ccccc1)C(=O)N[C@@H](CC(C)C)C(=O)[C@@]1(C)CO1 | 2900 nM | 5700 nM |
